According to article PMC7594054, “Design, Synthesis and In Vitro Experimental Validation of Novel TRPV4 Antagonists Inspired by Labdane Diterpenes” (Marine Drugs, 2020):
Entries after “also recorded” stand apart in the source; their conditions may differ. Like-named read-outs stand apart in the source and are kept apart here.

What was measured:
hTRPV1 = biological target: T1, hTRPV1 (Homo sapiens, UniProt Q8NER1); assay: TRPV1 calcium influx assay (Fluo-4) in HEK-293 cells overexpressing human recombinant TRPV1; assay type: cell-based; settings: for Efficacy %: as percent of the effect of ionomycin (4 µM), HEK-293 cells overexpressing hTRPV1, means ± SEM, N >= 3; for IC50: read-out: IC50 inh TRPV1; for EC50: activation, NA = not active (efficacy lower than 10%), read-out: Potency EC50
T1 construct: expressed in transfected cells; host or cells: HEK-293
T1 sequence (Q8NER1 whole entry): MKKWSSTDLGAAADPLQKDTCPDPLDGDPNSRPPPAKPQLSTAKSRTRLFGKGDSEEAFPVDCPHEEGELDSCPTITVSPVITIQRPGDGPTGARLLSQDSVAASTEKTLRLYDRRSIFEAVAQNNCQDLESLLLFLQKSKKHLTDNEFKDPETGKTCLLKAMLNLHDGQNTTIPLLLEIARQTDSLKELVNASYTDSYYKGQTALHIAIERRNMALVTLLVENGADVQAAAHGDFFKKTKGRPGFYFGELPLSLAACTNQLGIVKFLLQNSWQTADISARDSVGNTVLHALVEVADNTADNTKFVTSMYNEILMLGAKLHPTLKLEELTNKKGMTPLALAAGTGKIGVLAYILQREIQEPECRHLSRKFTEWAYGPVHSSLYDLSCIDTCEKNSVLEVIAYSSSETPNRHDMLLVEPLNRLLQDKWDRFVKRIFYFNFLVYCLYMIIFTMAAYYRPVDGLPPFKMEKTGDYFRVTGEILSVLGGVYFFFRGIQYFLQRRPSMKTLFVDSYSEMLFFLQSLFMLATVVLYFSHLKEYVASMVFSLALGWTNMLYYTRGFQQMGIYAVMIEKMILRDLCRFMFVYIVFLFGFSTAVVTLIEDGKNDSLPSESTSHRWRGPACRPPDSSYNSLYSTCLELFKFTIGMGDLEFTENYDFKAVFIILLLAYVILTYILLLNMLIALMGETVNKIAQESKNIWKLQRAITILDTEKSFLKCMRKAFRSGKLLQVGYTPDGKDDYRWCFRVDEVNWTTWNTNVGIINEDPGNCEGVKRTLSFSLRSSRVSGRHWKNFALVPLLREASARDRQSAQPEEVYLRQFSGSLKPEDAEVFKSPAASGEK

rTRPV4 = biological target: T2, rTRPV4 (Rattus norvegicus, UniProt Q9ERZ8); assay: TRPV4 calcium influx assay (Fluo-4) in HEK-293 cells overexpressing rat recombinant TRPV4; assay type: cell-based; settings: for IC50: against the effect of GSK1016790A (10 nM) after a 5-min pre-incubation, read-out: IC50 inh. TRPV4; for Efficacy %: as percent of the effect of ionomycin (4 µM), HEK-293 cells overexpressing rTRPV4, means ± SEM, n >= 3
T2 construct: expressed in transfected cells; host or cells: HEK-293
T2 sequence (Q9ERZ8 whole entry): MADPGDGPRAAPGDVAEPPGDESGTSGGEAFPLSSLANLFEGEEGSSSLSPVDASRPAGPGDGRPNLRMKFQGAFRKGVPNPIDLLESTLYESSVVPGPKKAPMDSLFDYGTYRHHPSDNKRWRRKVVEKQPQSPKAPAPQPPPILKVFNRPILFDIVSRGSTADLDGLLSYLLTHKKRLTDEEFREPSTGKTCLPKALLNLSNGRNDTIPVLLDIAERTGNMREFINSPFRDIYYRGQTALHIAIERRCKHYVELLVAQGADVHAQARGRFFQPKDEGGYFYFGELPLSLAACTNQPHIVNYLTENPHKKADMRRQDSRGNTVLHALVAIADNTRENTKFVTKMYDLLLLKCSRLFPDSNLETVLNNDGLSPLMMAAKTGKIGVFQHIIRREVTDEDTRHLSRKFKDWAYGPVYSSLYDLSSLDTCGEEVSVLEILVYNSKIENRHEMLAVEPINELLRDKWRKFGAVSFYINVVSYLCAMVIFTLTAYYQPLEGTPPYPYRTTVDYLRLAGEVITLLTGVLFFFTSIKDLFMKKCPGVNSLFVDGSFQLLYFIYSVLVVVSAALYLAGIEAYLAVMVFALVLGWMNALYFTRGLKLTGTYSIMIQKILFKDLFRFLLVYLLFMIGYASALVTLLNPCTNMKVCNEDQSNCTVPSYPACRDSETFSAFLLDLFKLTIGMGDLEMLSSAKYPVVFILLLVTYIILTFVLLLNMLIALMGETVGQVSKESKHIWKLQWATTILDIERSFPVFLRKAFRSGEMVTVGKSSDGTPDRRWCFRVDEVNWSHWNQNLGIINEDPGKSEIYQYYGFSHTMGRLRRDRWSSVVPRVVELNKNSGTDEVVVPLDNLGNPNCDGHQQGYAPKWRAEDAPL
Source text: The interaction properties of all homodrimane-derived compounds 1–16, 18–19, and 22–25 with either TRPV type-4 or type-1 were studied in human embryonic kidney (HEK)-293 cells overexpressing either the rat recombinant type-4 (rTRPV4), which shares with the human orthologue ~95% of sequence identity, and the human recombinant type-1 (hTRPV1) channel, evaluating the changes in intracellular calcium levels. […] Cell fluorescence before and after the addition of various concentrations of test compounds was measured normalizing the effects against the response to ionomycin (4 μM). […] Dose-response curve fitting (sigmoidal dose-response variable slope) and parameter estimation were performed with Graph-Pad Prism8® (GraphPad Software Inc., San Diego, CA, USA). All determinations were performed at least in triplicate.

[1] = activation, half-maximal increase in [Ca2+]i, NA = not active (efficacy lower than 10%), read-out: Potency EC50

Row | Efficacy % (hTRPV1) | IC50 (hTRPV1) | activity on rTRPV4 in words (rTRPV4) | IC50 (rTRPV4) | Efficacy % (rTRPV4) | activity on hTRPV1 in words (hTRPV1) | melting point | EC50 (hTRPV1) | EC50 (rTRPV4; [1]) | SMILES | EC50 (rTRPV4)
1 | 17.5 ± 2.7% | > 100 µM | completely devoid of activity | > 100 µM | <10% | – | – | – | – | CC1(C)CCC[C@]2(C)[C@@H](CC(=O)OCc3ccc(Cl)c(Cl)c3)[C@](C)(O)CC[C@@H]12 [Compound 19, 3,4-dichlorobenzyl 2-((1R,2R,4aS,8aS)-2-hydroxy-2,5,5,8a-tetramethyldecahydronaphthalen-1-yl)acetate] | –
2 | – | > 100 µM | inactive | > 100 µM | <10% | inactive | – | – | – | COC(=O)CC1C(C)(O)CCC2C(C)(C)CCCC21C (stereo not drawn) [Compound 20] | –
3 | – | > 100 µM | inactive | > 100 µM | <10% | inactive | – | – | – | CC1(C)CCC[C@]2(C)[C@@H](CCOCc3cccc(Cl)c3)[C@](C)(O)CC[C@@H]12 [Compound 25, (1R,2R,4aS,8aS)-1-(2-((3-Chlorobenzyl)oxy)ethyl)-2,5,5,8a-tetramethyldecahydronaphthalen-2-ol] | –
4 | – | > 100 µM | complete loss of activity | > 100 µM | <10% | – | – | – | – | CC1(C)CCC[C@]2(C)[C@@H](CC(=O)NCCCn3ccnc3)[C@](C)(O)CC[C@@H]12 [Compound 16, N-(3-(1H-imidazol-1-yl)propyl)-2-((1R,2R,4aS,8aS)-2-hydroxy-2,5,5,8a-tetramethyldecahydronaphthalen-1-yl)acetamide] | –
5 | – | > 100 µM | – | – | <10% | – | 155 to 156 °C | – | – | CC1(C)CCC[C@]2(C)[C@@H](CCOC(=O)c3ccc4c(c3)OCO4)[C@](C)(O)CC[C@@H]12 [Compound 22, 2-((1R,2R,4aS,8aS)-2-Hydroxy-2,5,5,8a-tetramethyldecahydronaphthalen-1-yl)ethyl Benzo[d][1,3]dioxole-5-carboxylate] | –
6 | – | > 100 µM | – | > 100 µM | <10% | – | – | – | – | CC1(C)CCC[C@]2(C)[C@@H](CCOC(=O)CCCc3cccs3)[C@](C)(O)CC[C@@H]12 [Compound 24, 2-((1R,2R,4aS,8aS)-2-hydroxy-2,5,5,8a-tetramethyldecahydronaphthalen-1-yl)ethyl 4-(thiophen-2-yl)butanoate] | –

The next lines start with the compound.

Row | SMILES | Efficacy % (hTRPV1) | IC50 (hTRPV1) | activity on rTRPV4 in words (rTRPV4) | IC50 (rTRPV4) | Efficacy % (rTRPV4) | activity on hTRPV1 in words (hTRPV1) | melting point | EC50 (hTRPV1) | EC50 (rTRPV4; [1]) | EC50 (rTRPV4)
7 | CC1(C)CCC[C@]2(C)[C@@H](CC(=O)NCc3ccco3)[C@](C)(O)CC[C@@H]12 [Compound 14, N-(furan-2-ylmethyl)-2-((1R,2R,4aS,8aS)-2-hydroxy-2,5,5,8a-tetramethyldecahydronaphthalen-1-yl)acetamide] | 25.2 ± 2.0% | > 100 µM | very weak antagonist properties | 53.5 ± 1.8 µM | <10% | – | – | – | – | –
8 | CC1(C)CCC[C@]2(C)[C@@H](CC(=O)Nc3ccccc3)[C@](C)(O)CC[C@@H]12 [Compound 1, 2-((1R,2R,4aS,8aS)-2-Hydroxy-2,5,5,8a-tetramethyldecahydronaphthalen-1-yl)-N-phenylacetamide] | 33.6 ± 0.8% | > 100 µM | – | > 100 µM | <10% | – | – | – | – | –
9 | CC1(C)CCC[C@]2(C)[C@@H](CC(=O)NCc3ccc(Cl)cc3)[C@](C)(O)CC[C@@H]12 [Compound 5, N-(4-chlorobenzyl)-2-((1R,2R,4aS,8aS)-2-hydroxy-2,5,5,8a-tetramethyldecahydronaphthalen-1-yl)acetamide] | – | > 100 µM | – | 7.7 ± 0.3 µM | <10% | – | – | – | – | –
10 | CC1(C)CCCC2(C)C1CCC(C)(O)C2CCO (stereo not drawn) [Compound 21] | – | > 100 µM | unable to modulate either channel; also recorded: inactive | > 100 µM | <10% | unable to modulate either channel | – | – | – | –
11 | CC1(C)CCC[C@]2(C)[C@@H](CC(=O)NCc3ccc(F)cc3)[C@](C)(O)CC[C@@H]12 [Compound 7, N-(4-fluorobenzyl)-2-((1R,2R,4aS,8aS)-2-hydroxy-2,5,5,8a-tetramethyldecahydronaphthalen-1-yl)acetamide] | 24.5± 0.2% | > 50 µM | – | 16.9 ± 0.8 µM | 15.8 ± 0.8% | – | 135 to 136 °C | 9.9 ± 0.1 µM | 13.4 ± 2.6 µM | –
12 | COc1ccc(CNC(=O)C[C@@H]2[C@@]3(C)CCCC(C)(C)[C@@H]3CC[C@@]2(C)O)cc1 [Compound 8, 2-((1R,2R,4aS,8aS)-2-hydroxy-2,5,5,8a-tetramethyldecahydronaphthalen-1-yl)-N-(4-methoxybenzyl)acetamide] | 19.7 ± 1.1% | > 100 µM | – | 29.7 ± 0.7 µM | <10% | – | – | – | – | –
13 | CC1(C)CCC[C@]2(C)[C@@H](CC(=O)Nc3cc(F)ccc3F)[C@](C)(O)CC[C@@H]12 [Compound 2, N-(2,5-difluorophenyl)-2-((1R,2R,4aS,8aS)-2-hydroxy-2,5,5,8a-tetramethyldecahydronaphthalen-1-yl)acetamide] | – | > 100 µM | – | > 100 µM | <10% | – | – | – | – | –
14 | CC1(C)CCC[C@]2(C)[C@@H](CC(=O)NCCc3ccccc3)[C@](C)(O)CC[C@@H]12 [Compound 10, 2-((1R,2R,4aS,8aS)-2-hydroxy-2,5,5,8a-tetramethyldecahydronaphthalen-1-yl)-N-phenethylacetamide] | – | – | – | 15.6 ± 0.3 µM | <10% | – | – | – | – | –
15 | CC1(C)CCC[C@]2(C)[C@@H](CC(=O)NCCc3ccc(F)cc3)[C@](C)(O)CC[C@@H]12 [Compound 12, N-(4-fluorophenethyl)-2-((1R,2R,4aS,8aS)-2-hydroxy-2,5,5,8a-tetramethyldecahydronaphthalen-1-yl)acetamide] | – | > 100 µM | – | 11.4 ± 0.1 µM | <10% | – | – | – | – | –
16 | CC1(C)CCC[C@]2(C)[C@@H](CC(=O)NCCc3ccc(Cl)cc3)[C@](C)(O)CC[C@@H]12 [Compound 11, N-(4-chlorophenethyl)-2-((1R,2R,4aS,8aS)-2-hydroxy-2,5,5,8a-tetramethyldecahydronaphthalen-1-yl)acetamide] | – | > 100 µM | – | 7 ± 0.1 µM | <10% | – | – | – | – | –
17 | CC(C)C[C@H](NC(=O)c1cc2ccccc2s1)C(=O)N1CCN(C(=O)[C@H](CO)NS(=O)(=O)c2ccc(Cl)cc2Cl)CC1 [GSK1016790A, N-((1S)-1-{[4-((2S)-2-{[(2,4-dichlorophenyl)sulfonyl]amino} -3-hydroxypropanoyl)-1-piperazinyl]carbonyl}-3-methylbutyl)-1-benzothiophene-2-carboxamide, reference compound] | – | – | – | – | – | – | – | – | – | 0.0035 µM
18 | CC1(C)CCC[C@]2(C)[C@H]3CC(=O)O[C@]3(C)CC[C@@H]12 [Scd, (+)-Sclareolide, reference compound] | 12.6 ± 0.5% | > 100 µM | unable to modulate either channel; also recorded: inactive | > 100 µM | 11.3 ± 0.7% | unable to modulate either channel | – | – | > 10 µM | –
19 | COc1cccc(CNC(=O)C[C@@H]2[C@@]3(C)CCCC(C)(C)[C@@H]3CC[C@@]2(C)O)c1 [Compound 9, 2-((1R,2R,4aS,8aS)-2-hydroxy-2,5,5,8a-tetramethyldecahydronaphthalen-1-yl)-N-(3 methoxybenzyl)acetamide] | – | > 100 µM | – | 18.1 ± 0.2 µM | <10% | – | – | – | – | –
20 | CC1(C)CCC[C@]2(C)[C@@H](CC(=O)NCCc3cccc(F)c3)[C@](C)(O)CC[C@@H]12 [Compound 13, N-(3-fluorophenethyl)-2-((1R,2R,4aS,8aS)-2-hydroxy-2,5,5,8a-tetramethyldecahydronaphthalen-1-yl)acetamide] | 20.8 ± 1.6% | > 50 µM | – | 11.9 ± 0.4 µM | <10% | – | – | – | – | –
21 | CC1(C)CCC[C@]2(C)[C@@H](CC(=O)Nc3ccccc3-n3cccc3)[C@](C)(O)CC[C@@H]12 [Compound 3, N-(2-(1H-pyrrol-1-yl)phenyl)-2-((1R,2R,4aS,8aS)-2-hydroxy-2,5,5,8a-tetramethyldecahydronaphthalen-1-yl)acetamide] | 32.0 ± 1.2% | > 100 µM | good rTRPV4 agonist | 6 ± 0.1 µM | 14.6 ± 1.5% | – | – | 4.7 ± 0.4 µM | 1.1 ± 1 µM | –
22 | CC1(C)CCC[C@]2(C)[C@@H](CC(=O)NCc3ccc(-c4ccccc4)cc3)[C@](C)(O)CC[C@@H]12 [Compound 15, N-((1,1′-biphenyl)-4-ylmethyl)-2-((1R,2R,4aS,8aS)-2-hydroxy-2,5,5,8a-tetramethyldecahydronaphthalen-1-yl)acetamide] | – | > 100 µM | completely devoid of activity | > 100 µM | <10% | – | – | – | – | –
23 | CC1(C)CCC[C@]2(C)[C@@H](CC(=O)NCc3ccccc3)[C@](C)(O)CC[C@@H]12 [Compound 4, N-benzyl-2-((1R,2R,4aS,8aS)-2-hydroxy-2,5,5,8a-tetramethyldecahydronaphthalen-1-yl)acetamide] | 36.8 ± 0.2% | – | – | 32 ± 0.8 µM | <10% | – | – | – | – | –
